Values of other authors in patent publication US5468754A, “11,7 substituted camptothecin derivatives and formulations of 11,7 substituted camptothecin derivatives and methods for uses thereof” (priority 1994, dated 1995).
Entries after “also recorded” stand apart in the source; their conditions may differ. Where two headings read alike, the source gives them in different places.

Key:
[1] = cited from earlier work
Breast = details: Clavel et al, 90 min QDx3 Q21 days; cited from earlier work
Mesothelioma = details: Clavel et al, 90 min QDx3 Q21 days; cited from earlier work
esophagus = details: Culine et al, 90 min, 150 mg/m2/wk (50-150); cited from earlier work
cervix = details: cited from earlier work
renal = details: Culine et al, 90 min, 150 mg/m2/wk (50-150); cited from earlier work
ovarian = details: Culine et al, 90 min, 150 mg/m2/wk (50-150); cited from earlier work
Colon Ca = details: cited from earlier work
[2] = Ohe et al; 120 hr infusion Q3 wks, 40 mg/m2/d (5-40); cited from earlier work
[3] = cited from earlier work; remark: listed apart in the source
[4] = test system: Untreated Non Small Cell Lung Cancer; details: Fukuoka et al; 100 mg/m^2; 73 pts; cited from earlier work
[5] = test system: Refractory or Relapsed Small Cell Lung Cancer; details: Masudu et al; 100 mg/m^2 weekly; 16 pts; cited from earlier work
Small Cell Lung Cancer = details: Negoro et al, 100 mg/m^2/week, 41 pts, cited from earlier work
Leukemia/Lymphoma = details: Ohono et al, cited from earlier work
Colon cancer = details: Shimada et al; 100 mg/m^2/week or 150 mg/m^2/Q 2 wks; 17 pts; cited from earlier work
Cervical cancer = details: Takeuchi et al; 100 mg/m^2 weekly, 150 mg/m^2 weeks; 69 pts; cited from earlier work
[6] = 5-day continuous intravenous infusion; cited from earlier work
[7] = patients; cited from earlier work
[8] = test system: Topoisomerase I, purified from human colon carcinoma cells; details: cited from earlier work
[9] = test system: Topoisomerase I, purified from calf thymus; details: cited from earlier work
[10] = compared with parent compound camptothecin; cited from earlier work
[11] = test system: Human lung cancer cell lines; details: human lung cancer cell lines vs normal cells; cited from earlier work
[12] = test system: xenografts of human tumors; details: Kawato et al., nude mice; cited from earlier work
[13] = compared with parent compound camptothecin; cited from earlier work; remark: listed apart in the source
[14] = cited from earlier work; remark: listed apart in the source
[15] = Clavel et al, 90 min, QDx3 Q21 days, 115 mg/m2/d (33-115), 37 pts
[16] = Culine et al, 90 min, Q21 days, 150 mg/m2/wk (50-150), 59 pts
[17] = Negoro et al, 30 min infusion weekly, 100 mg/m2 (50-150), 17 pts
[18] = Ohe et al, 120 hr CI Q3 wks, 40 mg/m2/d (5-40), 36 pts
[19] = Rothenberg et al, QWx4 Q42 days, 180 mg/m2/wk (50-180), 32 pts
[20] = Rowinsky et al, 90 min infusion Q21 day, 240 mg/m2 (100-345), 32 pts
[21] = Negoro et al, Small Cell Lung Cancer, 100 mg/m^2/week
[22] = Ohono et al, Leukemia/Lymphoma, 62 pts
[23] = Shimada et al, Colon cancer, 17 pts
[24] = Takeuchi et al, Cervical cancer, 69 pts

Q: What does the source list for `CCc1c2c(nc3ccc(OC(=O)N4CCC(N5CCCCC5)CC4)cc13)-c1cc3c(c(=O)n1C2)COC(=O)[C@]3(O)CC` [CPT-11]?
A: Toxicity [1, 15]: diarrhea; also recorded: nausea; also recorded: vomiting; also recorded: alopecia; Toxicity (Dose Limiting Toxicity) [1, 15]: Neutropenia; Toxicity [1, 16]: vomiting; also recorded: alopecia; also recorded: fatigue; also recorded: stomatitis; Toxicity (Dose Limiting Toxicity) [1, 16]: Neutropenia; also recorded: diarrhea; Toxicity [1, 17]: N/V and alopecia and liver; Toxicity (Dose Limiting Toxicity) [1, 17]: Neutropenia; also recorded: Diarrhea; Toxicity [1, 18]: nausea; also recorded: vomiting; also recorded: thromobo-; also recorded: anemia; also recorded: liver; Toxicity (Dose Limiting Toxicity) [1, 18]: Diarrhea; major reported, dose-limiting toxicities ([1]; Phase I and Phase II clinical trials of CPT-11): Neutropenia and diarrhea; Toxicity [1, 19]: Neutropenia; also recorded: nausea; also recorded: vomiting; also recorded: alopecia; Toxicity (Dose Limiting Toxicity) [1, 19]: Diarrhea; Toxicity [1, 20]: vomiting and diarrhea and pain and flushing; Toxicity (Dose Limiting Toxicity) [1, 20]: Neutropenia; Tumor response (partial responses) (Breast): 1 PR; Tumor response (partial responses) (Mesothelioma): 1 PR; Tumor response (partial responses) (esophagus): 1 PR; Tumor response (partial responses) (cervix; Culine et al, cervix, 90 min, 150 mg/m2/wk (50-150)): 1 PR; Tumor response (partial responses) (cervix; Rowinsky et al, Cervix Ca, 90 min infusion Q21 day, 240 mg/m2 (100-345)): 1 PR; Tumor response (partial responses) (renal): 1 PR; Tumor response (partial responses) (ovarian): 1 PR; Tumor response (partial responses) (Colon Ca; Rothenberg et al, QWx4 Q42 days, 180 mg/m2/wk (50-180)): 2 PRs; Tumor response (partial responses) (Colon Ca; Rowinsky et al, 90 min infusion Q21 day, 240 mg/m2 (100-345)): 1 PR; Tumor response [2]: None; Toxicity ([3]; Fukuoka et al, Untreated Non Small Cell Lung Cancer, 100 mg/m^2): Neutropenia; also recorded: diarrhea; also recorded: nausea; also recorded: vomiting; also recorded: anorexia; also recorded: alopecia; pneumonitis ([3]; Masudu et al, 100 mg/m^2 weekly, 16 pts): 12.5%; Toxicity ([3]; Masudu et al, Refractory or Relapsed Small Cell Lung Cancer, 100 mg/m^2 weekly): Neutropenia; also recorded: diarrhea; N/V [3, 21]: 61.5%; alopecia [3, 21]: 40.0%; diarrhea [3, 21]: 53.8%; Gastrointestinal [3, 22]: 76%; Toxicity [3, 22]: Thromocytopenia; N/V [3, 23]: 35%; diarrhea [3, 23]: 24%; N/V [3, 24]: 51%; alopecia [3, 24]: 38.1%; diarrhea [3, 24]: 39.1%; RESPONSE (PRs) [4]: 31.9%; RESPONSE (PRs, patients) [4]: 23/72; RESPONSE (PRs) [5]: 47%; RESPONSE (PRs, patients) [5]: 7/15; RESPONSE (Small Cell Lung Cancer; 2 CRs and 7 PRs): 33.3%; RESPONSE (CRs) (Small Cell Lung Cancer): 2 CRs; RESPONSE (PRs) (Small Cell Lung Cancer): 7 PRs; RESPONSE (RR) (Leukemia/Lymphoma; 20 mg/m^2 bid x7): 25 % RR; RESPONSE (PR) (Leukemia/Lymphoma; 40 mg/m^2 x5): 34 % PR; RESPONSE (Leukemia/Lymphoma; 200 mg Q3): No resp.; RESPONSE (Colon cancer): 46%; RESPONSE (PR, patients) (Colon cancer): 6/17; RESPONSE (CR) (Cervical cancer): SCR; RESPONSE (PR) (Cervical cancer): 8 PR; RESPONSE (RR) (Cervical cancer): 23.6%; conversion of CPT-11 to SN38 [6]: saturable process; variability of metabolic conversion of CPT-11 to SN38 [7]: large range of interpatient variability; also recorded: varies from patient to patient; inhibition of Topoisomerase I [8]: inhibited; inhibition of Topoisomerase I [9]: inhibited; antitumor activity [10]: retain the significant antitumor activity of the parent compound; conversion of CPT-11 to SN38 [11]: convert less CPT-11 to SN38 than normal cells; sensitivity of human tumors vs their ability to produce SN38 [12]: independent of their ability to produce SN38; Toxicity [13]: less sporadic toxicities; Fractional amount of lactone species, CPT-11 CpMax Based ([14]; 50 mg/m2 single dose I.V.): 0.51; Fractional amount of lactone species, CPT-11 CpMax Based ([14]; 80 mg/m2 single dose I.V.): 0.44; Fractional amount of lactone species, CPT-11 CpMax Based ([14]; 100 mg/m2 single dose I.V.): 0.53; Fractional amount of lactone species, CPT-11 CpMax Based ([14]; 125 mg/m2 single dose I.V.): 0.55; Fractional amount of lactone species, CPT-11 CpMax Based ([14]; 150 mg/m2 single dose I.V.): 0.42; Fractional amount of lactone species, CPT-11 CpMax Based ([14]; 180 mg/m2 single dose I.V.): 0.42; overall fractional concentration of the lactone species ([14]; through a range of doses, total AUC and CpMax data): fairly constant through a range of doses
